Several values for one entry are separate records, joined by “and”; a condition that tells them apart may be missing. Identical values can stand only once.
Key:
[1] = target: Dual specificity protein kinase CLK4 (Homo sapiens, UniProt Q9HAZ1)
[2] = target: Dual specificity tyrosine-phosphorylation-regulated kinase 1A (Homo sapiens, UniProt Q13627)
[3] = target: Dual specificity protein kinase CLK1 (Homo sapiens, UniProt P49759)
[4] = target: Dual specificity tyrosine-phosphorylation-regulated kinase 1B (Homo sapiens, UniProt Q9Y463)
Dual specificity tyrosine-phosphorylation-regulated kinase 1B, sequence (Q9Y463 whole entry): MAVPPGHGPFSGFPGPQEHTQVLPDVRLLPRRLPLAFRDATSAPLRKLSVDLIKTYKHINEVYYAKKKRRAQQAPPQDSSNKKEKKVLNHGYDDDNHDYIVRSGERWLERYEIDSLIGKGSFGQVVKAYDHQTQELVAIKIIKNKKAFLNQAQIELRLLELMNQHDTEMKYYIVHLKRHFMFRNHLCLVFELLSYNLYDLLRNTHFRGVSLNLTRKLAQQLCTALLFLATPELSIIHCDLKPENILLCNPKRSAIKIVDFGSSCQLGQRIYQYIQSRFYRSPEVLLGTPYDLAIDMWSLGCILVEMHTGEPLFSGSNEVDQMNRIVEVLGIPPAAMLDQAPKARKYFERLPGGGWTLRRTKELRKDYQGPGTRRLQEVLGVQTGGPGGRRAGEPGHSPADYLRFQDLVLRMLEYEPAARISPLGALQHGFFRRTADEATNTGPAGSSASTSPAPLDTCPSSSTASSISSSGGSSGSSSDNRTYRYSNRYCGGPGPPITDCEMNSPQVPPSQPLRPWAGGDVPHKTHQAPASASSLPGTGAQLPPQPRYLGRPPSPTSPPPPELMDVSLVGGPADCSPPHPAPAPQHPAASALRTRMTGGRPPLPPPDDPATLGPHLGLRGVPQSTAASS

[5] = target: Cyclin-dependent kinase 5 (Homo sapiens, UniProt Q00535)
Cyclin-dependent kinase 5, sequence (Q00535 whole entry): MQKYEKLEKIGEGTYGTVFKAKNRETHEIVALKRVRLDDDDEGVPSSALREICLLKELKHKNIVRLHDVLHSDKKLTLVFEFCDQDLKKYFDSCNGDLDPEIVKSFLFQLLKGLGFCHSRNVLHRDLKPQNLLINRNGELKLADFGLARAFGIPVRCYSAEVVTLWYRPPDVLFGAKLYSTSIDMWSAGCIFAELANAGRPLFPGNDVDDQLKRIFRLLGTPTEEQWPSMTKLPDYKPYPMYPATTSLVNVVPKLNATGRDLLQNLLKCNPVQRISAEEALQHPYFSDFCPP

Casein kinase I = assay type: protein assay, Homo sapiens
[6] = target: Dual specificity protein kinase CLK3 (Homo sapiens, UniProt P49761)
Dual specificity protein kinase CLK3, sequence (P49761 whole entry): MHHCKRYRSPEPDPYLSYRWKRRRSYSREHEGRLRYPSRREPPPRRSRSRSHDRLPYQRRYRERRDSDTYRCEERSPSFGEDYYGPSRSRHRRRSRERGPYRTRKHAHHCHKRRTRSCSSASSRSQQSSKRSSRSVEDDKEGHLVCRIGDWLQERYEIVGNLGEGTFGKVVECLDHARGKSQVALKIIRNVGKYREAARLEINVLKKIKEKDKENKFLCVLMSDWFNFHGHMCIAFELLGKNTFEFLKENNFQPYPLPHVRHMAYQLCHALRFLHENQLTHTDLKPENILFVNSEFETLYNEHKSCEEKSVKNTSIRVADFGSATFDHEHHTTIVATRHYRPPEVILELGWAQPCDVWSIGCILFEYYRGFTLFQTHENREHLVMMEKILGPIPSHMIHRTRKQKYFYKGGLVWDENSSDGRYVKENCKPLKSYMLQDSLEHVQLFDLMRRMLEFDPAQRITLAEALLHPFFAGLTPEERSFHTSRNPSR

[7] = target: T1, Dual specificity tyrosine-phosphorylation-regulated kinase 2 (Homo sapiens, UniProt Q92630)
T1 sequence (Q92630 whole entry): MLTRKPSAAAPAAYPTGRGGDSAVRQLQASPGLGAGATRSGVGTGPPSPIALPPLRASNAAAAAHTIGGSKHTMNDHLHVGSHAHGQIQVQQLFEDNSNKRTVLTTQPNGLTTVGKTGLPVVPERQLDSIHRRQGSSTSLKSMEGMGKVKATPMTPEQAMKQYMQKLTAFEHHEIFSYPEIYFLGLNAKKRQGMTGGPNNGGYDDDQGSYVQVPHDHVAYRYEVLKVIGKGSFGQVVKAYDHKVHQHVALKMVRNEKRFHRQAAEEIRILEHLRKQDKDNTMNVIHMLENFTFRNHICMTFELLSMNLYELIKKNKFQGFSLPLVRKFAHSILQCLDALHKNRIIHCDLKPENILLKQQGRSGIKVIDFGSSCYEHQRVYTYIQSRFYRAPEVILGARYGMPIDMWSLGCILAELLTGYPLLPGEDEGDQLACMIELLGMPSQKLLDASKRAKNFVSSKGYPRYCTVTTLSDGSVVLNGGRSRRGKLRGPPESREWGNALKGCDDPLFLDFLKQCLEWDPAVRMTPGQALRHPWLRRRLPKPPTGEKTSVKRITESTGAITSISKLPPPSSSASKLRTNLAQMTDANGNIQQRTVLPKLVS

[8] = target: T2, Dual specificity tyrosine-phosphorylation-regulated kinase 3 (Homo sapiens, UniProt O43781)
T2 sequence (O43781 whole entry): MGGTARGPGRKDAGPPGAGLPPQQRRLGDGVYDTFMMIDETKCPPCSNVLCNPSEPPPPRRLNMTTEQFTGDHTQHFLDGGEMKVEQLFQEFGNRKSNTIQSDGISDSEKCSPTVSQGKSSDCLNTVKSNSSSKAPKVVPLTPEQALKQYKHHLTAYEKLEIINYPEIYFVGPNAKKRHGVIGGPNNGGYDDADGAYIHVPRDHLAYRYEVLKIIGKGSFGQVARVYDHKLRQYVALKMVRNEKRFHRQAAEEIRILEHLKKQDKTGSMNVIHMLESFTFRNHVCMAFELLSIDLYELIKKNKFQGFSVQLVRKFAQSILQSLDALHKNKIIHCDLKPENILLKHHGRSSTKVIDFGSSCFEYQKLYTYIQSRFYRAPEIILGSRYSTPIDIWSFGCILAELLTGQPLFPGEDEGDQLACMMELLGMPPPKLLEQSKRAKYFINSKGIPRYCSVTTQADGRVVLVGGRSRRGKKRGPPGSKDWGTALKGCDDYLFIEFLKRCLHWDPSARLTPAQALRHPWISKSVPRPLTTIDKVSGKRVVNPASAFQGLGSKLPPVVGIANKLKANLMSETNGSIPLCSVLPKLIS

[9] = target: T3, Dual specificity tyrosine-phosphorylation-regulated kinase 4 (Homo sapiens, UniProt Q9NR20)
T3 sequence (Q9NR20 whole entry): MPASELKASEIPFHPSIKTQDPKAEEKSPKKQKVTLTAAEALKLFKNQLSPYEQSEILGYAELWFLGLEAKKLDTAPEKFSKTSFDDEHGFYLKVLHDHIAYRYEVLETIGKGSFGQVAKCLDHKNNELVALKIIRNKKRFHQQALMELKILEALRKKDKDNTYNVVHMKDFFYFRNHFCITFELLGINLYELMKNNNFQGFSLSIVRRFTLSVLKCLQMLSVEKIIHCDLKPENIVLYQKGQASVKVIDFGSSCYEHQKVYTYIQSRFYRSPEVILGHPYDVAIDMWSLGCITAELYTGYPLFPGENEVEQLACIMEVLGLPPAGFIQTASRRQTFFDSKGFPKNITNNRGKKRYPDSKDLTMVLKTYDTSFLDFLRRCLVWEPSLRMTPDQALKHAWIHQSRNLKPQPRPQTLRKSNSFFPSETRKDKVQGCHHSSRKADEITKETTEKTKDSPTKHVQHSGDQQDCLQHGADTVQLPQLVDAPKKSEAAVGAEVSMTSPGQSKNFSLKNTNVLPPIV

[10] = target: Glycogen synthase kinase-3 (Homo sapiens, UniProt P49840+P49841); assay type: protein assay
[11] = target: Dual specificity protein kinase CLK2 (Homo sapiens, UniProt P49760)
Dual specificity protein kinase CLK2, sequence (P49760 whole entry): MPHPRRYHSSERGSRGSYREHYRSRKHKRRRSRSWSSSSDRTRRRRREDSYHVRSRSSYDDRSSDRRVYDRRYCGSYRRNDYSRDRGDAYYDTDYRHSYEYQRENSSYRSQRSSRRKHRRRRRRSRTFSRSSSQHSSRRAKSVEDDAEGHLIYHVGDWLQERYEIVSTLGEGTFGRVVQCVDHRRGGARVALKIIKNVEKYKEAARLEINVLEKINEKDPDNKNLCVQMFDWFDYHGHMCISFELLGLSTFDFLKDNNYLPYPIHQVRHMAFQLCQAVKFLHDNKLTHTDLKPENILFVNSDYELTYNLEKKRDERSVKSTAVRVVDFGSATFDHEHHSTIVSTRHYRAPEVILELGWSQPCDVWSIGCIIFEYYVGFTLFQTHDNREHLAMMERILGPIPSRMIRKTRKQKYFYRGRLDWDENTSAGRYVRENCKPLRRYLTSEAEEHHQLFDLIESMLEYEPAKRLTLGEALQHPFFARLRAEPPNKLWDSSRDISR

Dual specificity protein kinase CLK1, sequence (P49759 whole entry): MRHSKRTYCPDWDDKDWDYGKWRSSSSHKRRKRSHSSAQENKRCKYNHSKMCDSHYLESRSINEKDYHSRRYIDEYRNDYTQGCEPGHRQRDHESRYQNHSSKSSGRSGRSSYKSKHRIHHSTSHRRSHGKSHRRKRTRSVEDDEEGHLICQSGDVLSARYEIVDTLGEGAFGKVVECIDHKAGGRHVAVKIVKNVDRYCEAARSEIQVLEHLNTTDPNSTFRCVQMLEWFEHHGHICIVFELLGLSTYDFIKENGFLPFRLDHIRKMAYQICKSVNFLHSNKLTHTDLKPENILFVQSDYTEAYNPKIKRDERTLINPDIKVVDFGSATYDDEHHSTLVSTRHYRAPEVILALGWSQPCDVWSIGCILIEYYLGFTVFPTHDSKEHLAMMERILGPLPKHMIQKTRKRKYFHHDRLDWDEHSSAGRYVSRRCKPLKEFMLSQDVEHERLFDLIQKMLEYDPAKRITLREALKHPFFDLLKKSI
Dual specificity protein kinase CLK4, sequence (Q9HAZ1 whole entry): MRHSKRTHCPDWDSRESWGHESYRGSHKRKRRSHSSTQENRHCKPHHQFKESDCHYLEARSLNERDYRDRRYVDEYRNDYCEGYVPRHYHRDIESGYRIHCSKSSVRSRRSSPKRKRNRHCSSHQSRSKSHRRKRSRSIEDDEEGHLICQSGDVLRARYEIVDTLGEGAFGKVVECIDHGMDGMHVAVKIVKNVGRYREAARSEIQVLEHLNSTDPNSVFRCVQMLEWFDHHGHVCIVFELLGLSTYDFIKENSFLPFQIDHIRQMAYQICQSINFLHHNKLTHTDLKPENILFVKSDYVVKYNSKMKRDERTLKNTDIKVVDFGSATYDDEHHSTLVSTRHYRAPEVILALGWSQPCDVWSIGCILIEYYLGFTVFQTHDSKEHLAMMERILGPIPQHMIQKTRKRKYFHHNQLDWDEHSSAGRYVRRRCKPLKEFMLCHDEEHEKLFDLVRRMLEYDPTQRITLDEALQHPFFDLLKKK

Row | SMILES | IC50 [1] | IC50 [2] | IC50 [3] | IC50 [4] | other results
1 | COC[C@@H](CC(C)C)NC1=N/C(=C\c2ccc3nn(C)cc3c2)C(=O)N1 |  |  | 191 nM | 78.3 nM | 
2 | CC(C)C[C@@H](CO)NC1=N/C(=C\c2ccc3ncsc3c2)C(=O)N1 |  |  | 38.7 nM |  | IC50 [5]: > 10000 nM; IC50 (Casein kinase I): > 10000 nM; IC50 [6]: 474 nM; IC50 [7]: 2840 nM; IC50 [8]: 493 nM; IC50 [9]: 5180 nM; IC50 [10]: 8165 nM
3 | COC[C@@H](CC(C)C)NC1=N/C(=C\c2ccc3c(c2)CCO3)C(=O)N1 | 14 nM | 11.6 nM | 56.7 nM | 71.6 nM | 
4 | COC[C@@H](CC(C)C)NC1=N/C(=C\c2ccc3c(ccn3C)c2)C(=O)N1 | > 10000 nM |  | > 10000 nM | 8170 nM | 
5 | COC[C@@H](CC(C)C)NC1=N/C(=C\c2ccc3ncsc3c2)C(=O)N1C1CCCCC1 | 4910 nM |  | > 10000 nM | > 10000 nM | IC50 [5]: > 10000 nM; IC50 (Casein kinase I): > 10000 nM; IC50 [11]: > 10000 nM; IC50 [6]: > 10000 nM; IC50 [7]: 3970 nM; IC50 [9]: > 10000 nM; IC50 [10]: > 10000 nM
6 | COC[C@@H](CC(C)C)NC1=N/C(=C\c2ccc3ncsc3c2)C(=O)N1C1CCC1 | 1210 nM | 5620 nM | 1420 nM |  | IC50 [5]: > 10000 nM; IC50 (Casein kinase I): > 10000 nM; IC50 [6]: 4690 nM; IC50 [7]: 581 nM; IC50 [8]: 5320 nM; IC50 [10]: > 10000 nM
7 | COC[C@@H](CC(C)C)NC1=N/C(=C\c2cnc3ncsc3c2)C(=O)N1 | > 10000 nM |  | > 10000 nM |  | IC50 [5]: > 10000 nM; IC50 (Casein kinase I): > 10000 nM; IC50 [11]: > 10000 nM; IC50 [6]: > 10000 nM; IC50 [7]: > 10000 nM; IC50 [9]: > 10000 nM; IC50 [10]: > 10000 nM
8 | COC[C@@H](CC(C)C)NC1=N/C(=C\c2ccc3c(c2)CCO3)C(=O)N1C | 578 nM | 488 nM |  | 170 nM | 
9 | COC[C@@H](CC(C)C)NC1=N/C(=C\c2ccc3[nH]ccc3c2)C(=O)N1 | > 10000 nM | 4790 nM |  | > 10000 nM | 
10 | COC[C@@H](CC(C)C)NC1=N/C(=C\c2ccc3c(c2)OCO3)C(=O)N1 | 13.5 nM | 5 nM | 1 nM | 23 nM | 
11 | COC[C@@H](CC(C)C)NC1=N/C(=C\c2ccc3[nH]ncc3c2)C(=O)N1 | 245 nM |  | 310 nM | 115 nM | 
12 | CCN1C(=O)/C(=C/c2ccc3ncsc3c2)N=C1N[C@@H](COC)CC(C)C | 58.5 nM |  | 200 nM |  | IC50 [5]: > 10000 nM; IC50 (Casein kinase I): > 10000 nM; IC50 [6]: 1360 nM; IC50 [7]: 165 nM; IC50 [9]: 2560 nM; IC50 [10]: 7867 nM
13 | COC[C@@H](CC(C)C)NC1=N/C(=C\c2ccc3ncn(C)c3c2)C(=O)N1 | 11.7 nM | 78.7 nM | 38.2 nM |  | 
14 | CC(C)C[C@H](CO)NC1=N/C(=C\c2ccc3ncsc3c2)C(=O)N1 |  |  | 13.9 nM |  | IC50 [5]: > 10000 nM; IC50 (Casein kinase I): > 10000 nM; IC50 [6]: 461 nM; IC50 [7]: 635 nM; IC50 [8]: 310 nM; IC50 [9]: 510 nM; IC50 [10]: 2320 nM
15 | COC[C@@H](CC(C)C)NC1=N/C(=C\c2ccc3ncsc3n2)C(=O)N1 | 26.4 nM | 36.5 nM | 33.6 nM | 85 nM | IC50 [5]: > 10000 nM; IC50 (Casein kinase I): > 10000 nM; IC50 [6]: 219 nM; IC50 [7]: 4360 nM; IC50 [8]: 1380 nM; IC50 [9]: 4780 nM; IC50 [10]: 4270 nM
16 | COC[C@@H](CC(C)C)NC1=N/C(=C\c2ccc3c(c2)OCO3)C(=O)N1C | 77.1 nM | 53.5 nM | 131 nM | 41.1 nM | 
17 | COC[C@@H](CC(C)C)NC1=N/C(=C\c2ccc3nc(C)sc3c2)C(=O)N1 | 52.7 nM |  |  |  | 
18 | COC[C@@H](CC(C)C)NC1=N/C(=C\c2ccc3[nH]cnc3c2)C(=O)N1 | 41.2 nM | 76.6 nM | 104 nM | 1080 nM | 
19 | COC[C@@H](CC(C)C)NC1=N/C(=C\c2ccc3ncoc3c2)C(=O)N1 |  |  | 14.2 nM |  | 
20 | COC[C@@H](CC(C)C)NC1=N/C(=C\c2ccc3c(cnn3C)c2)C(=O)N1 | 189 nM |  |  | 358 nM | 
21 | CN1C(=O)/C(=C/c2ccc3c(c2)OCO3)N=C1N [LEUCETTAMINE B] |  |  |  |  | IC50 (Casein kinase I): > 10000 nM; IC50 [10]: > 10000 nM
22 | O=C1NC(Nc2ccccc2)=N/C1=C\c1ccc2c(c1)OCO2 | 10 nM |  |  |  | IC50 (Casein kinase I): > 10000 nM; IC50 [6]: 5840 nM; IC50 [9]: 507 nM; IC50 [10]: 1544 nM
23 | COC[C@@H](CC(C)C)NC1=N/C(=C\c2ccc3[nH]ccc3c2)C(=O)N1C | > 10000 nM | 3930 nM |  |  | 
24 | COC[C@@H](CC(C)C)NC1=N/C(=C\c2ccc3nnsc3c2)C(=O)N1 | 268 nM |  |  |  | 

Second part, led by results:

Row | IC50 [1] | IC50 [2] | IC50 [3] | IC50 [4] | SMILES | other results
25 | 2.1 nM | 112 nM |  |  | COC[C@@H](CC(C)C)NC1=N/C(=C\c2ccc3[nH]cnc3c2)C(=O)N1C | 
26 | 153 nM |  | 258 nM |  | COC[C@@H](CC(C)C)NC1=N/C(=C\c2ccc3nn(C)cc3c2)C(=O)N1C | 
27 | 166 nM | 196 nM |  | 134 nM | COC[C@@H](CC(C)C)NC1=N/C(=C\c2ccc3[nH]ncc3c2)C(=O)N1C | 
28 | > 10000 nM | > 10000 nM | > 10000 nM | > 10000 nM | COC[C@@H](CC(C)C)NC1=N/C(=C\c2ccc3c(ccn3C)c2)C(=O)N1C | 
29 | 16.3 nM |  | 18.8 nM |  | COC[C@@H](CC(C)C)NC1=N/C(=C/c2ccc3ncoc3c2)C(=O)N1C | 
30 | 11.6 nM and 12.4 nM |  |  | 9.6 nM and 16.6 nM | COC[C@@H](CC(C)C)NC1=N/C(=C\c2ccc3ncsc3c2)C(=O)N1C | IC50 [5]: > 10000 nM; IC50 (Casein kinase I): > 10000 nM; IC50 [9]: 525 nM; IC50 [10]: 4481 nM
31 | 673 nM | 511 nM | 496 nM |  | COC[C@@H](CC(C)C)NC1=N/C(=C\c2ccc3nc(C)sc3c2)C(=O)N1C | 
32 |  | 399 nM | 408 nM |  | COC[C@@H](CC(C)C)NC1=N/C(=C\c2ccc3c(cnn3C)c2)C(=O)N1C | 
33 |  |  | 37.6 nM |  | COC[C@@H](CC(C)C)NC1=N/C(=C\c2ccc3ncn(C)c3c2)C(=O)N1C | 
34 | > 10000 nM | > 10000 nM | > 10000 nM | > 10000 nM | COC[C@@H](CC(C)C)NC1=N/C(=C\c2ccc3scnc3c2)C(=O)N1C | 
35 | 861 nM | 950 nM | 734 nM | 751 nM | COC[C@@H](CC(C)C)NC1=N/C(=C\c2ccc3nnsc3c2)C(=O)N1C | 
36 | > 10000 nM | > 10000 nM | > 10000 nM | > 10000 nM | COC[C@@H](CC(C)C)NC1=N/C(=C\c2ccc3c(c2)ncn3C)C(=O)N1C | 
37 | > 10000 nM | > 10000 nM | > 10000 nM | > 10000 nM | COC[C@@H](CC(C)C)NC1=N/C(=C\c2ccc3c(c2)ncn3C)C(=O)N1 | 

From ChEMBL document CHEMBL5375979, “Chemical, Biochemical, Cellular, and Physiological Characterization of Leucettinib-21, a Down Syndrome and Alzheimer's Disease Drug Candidate” (J Med Chem, 2023)
